In PubChem BioAssay (NCI):
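96-well plates; 48 h exposure; 5 concentrations. Endpoints by linear interpolation between flanking doses. Not reached: highest tested concentration assigned. GI50 = concentration required for 50% inhibition of growth. TGI: total growth inhibition.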

Tests used:
Test in all cases: inhibition of tumour cell growth, NCI panel, 48 h
[1] = tested on: U251 CNS
[2] = tested on: SNB-19 CNS
[3] = tested on: NCI-H460 lung
[4] = tested on: RPMI-8226 leukemia
[5] = tested on: SK-OV-3 ovarian
[6] = tested on: MDA-MB-435
[7] = tested on: SF-268 CNS
[8] = tested on: SK-MEL-28 melanoma
[9] = tested on: SW-620 colon
[10] = tested on: K-562 leukemia
[11] = tested on: A549 NSCLC
[12] = tested on: MCF7 breast
[13] = tested on: CCRF-CEM leukemia
[14] = tested on: NCI/ADR-RES ovarian
[15] = tested on: SK-MEL-5 melanoma
[16] = tested on: IGROV1 ovarian
[17] = tested on: COLO 205 colon
[18] = tested on: MALME-3M melanoma
[19] = tested on: ACHN renal
[20] = tested on: HOP-62 NSCLC
[21] = tested on: NCI-H23 lung
[22] = tested on: OVCAR-5 ovarian
[23] = tested on: SR leukemia
[24] = tested on: M14 melanoma
[25] = tested on: 786-0 renal
[26] = tested on: OVCAR-4 ovarian
[27] = tested on: SK-MEL-2 melanoma
[28] = tested on: SNB-75 CNS
[29] = tested on: T-47D breast
[30] = tested on: RXF 393 renal
[31] = tested on: CAKI-1 renal
[32] = tested on: MOLT-4 leukemia
[33] = tested on: UACC-62 melanoma
[34] = tested on: BT-549 breast
[35] = tested on: PC-3 prostate
[36] = tested on: SN12C renal
[37] = tested on: TK-10 renal
[38] = tested on: HOP-92 NSCLC
[39] = tested on: UO-31 renal
[40] = tested on: OVCAR-3 ovarian
[41] = tested on: EKVX NSCLC
[42] = tested on: KM12 colon
[43] = tested on: HL-60(TB) leukemia
[44] = tested on: NCI-H522 lung
[45] = tested on: DU-145 prostate
[46] = tested on: NCI-H226 lung
[47] = tested on: UACC-257 melanoma
[48] = tested on: MDA-MB-231 breast
[49] = tested on: A498 renal
[50] = tested on: SF-295 CNS
[51] = tested on: SF-539 CNS
[52] = tested on: HCC-2998 colon
[53] = tested on: HT29 colon
[54] = tested on: HCT-15 colon
[55] = tested on: LOX IMVI melanoma

For `Cc1cc(NCCCCCCNc2cc(C)nc3ccc(N)cc23)c2cc(N)ccc2n1`, the TGI [1] was > 100000 nM and the TGI [2] was > 100000 nM.

For `COc1cc2ccc3ccncc3c2cc1OC`, the TGI [3] was > 10000 nM, the TGI [4] was > 10000 nM and the TGI [5] was > 10000 nM. The TGI [6] was > 10000 nM, the TGI [7] was > 10000 nM and the TGI [8] was > 10000 nM. The TGI [9] was > 10000 nM, the TGI [10] was > 10000 nM and the TGI [11] was > 10000 nM. For the same molecule, the TGI [1] was > 10000 nM, the TGI [12] was > 10000 nM and the TGI [13] was > 10000 nM. For the same molecule, the TGI [14] was > 10000 nM, the TGI [15] was > 10000 nM and the TGI [16] was > 10000 nM. For the same molecule, the TGI [17] was > 10000 nM, the TGI [18] was > 10000 nM and the TGI [19] was > 10000 nM. The TGI [20] was > 10000 nM, the TGI [21] was > 10000 nM and the TGI [22] was > 10000 nM. For the same molecule, the TGI [23] was > 10000 nM, the TGI [24] was > 10000 nM and the TGI [25] was > 10000 nM. For the same molecule, the TGI [26] was > 10000 nM, the TGI [27] was > 10000 nM and the TGI [28] was > 10000 nM. The TGI [29] was > 10000 nM, the TGI [30] was > 10000 nM and the TGI [31] was > 10000 nM. The TGI [32] was > 10000 nM and the TGI [33] was > 10000 nM.

For `C=C(C)[C@@H]1CC[C@]2(CO)CC[C@]3(C)[C@H](CC[C@@H]4[C@@]5(C)CC[C@H](NCO)C(C)(C)[C@@H]5CC[C@]43C)[C@@H]12`, the GI50 [3] was 918 nM, the TGI [3] was 1790 nM and the GI50 [4] was 934 nM. For the same molecule, the TGI [4] was 2500 nM, the GI50 [34] was 792 nM and the TGI [34] was 1530 nM. It also gave a GI50 [35] of 850 nM, a TGI [35] of 1850 nM and a GI50 [5] of 870 nM. For the same molecule, the TGI [5] was 1610 nM, the GI50 [36] was 790 nM and the TGI [36] was 1500 nM. For the same molecule, the GI50 [6] was 896 nM, the TGI [6] was 1780 nM and the GI50 [7] was 944 nM. The TGI [7] was 1920 nM, the GI50 [37] was 965 nM and the TGI [37] was 1780 nM. For the same molecule, the GI50 [8] was 894 nM, the TGI [8] was 1610 nM and the GI50 [9] was 948 nM. The TGI [9] was 1960 nM, the GI50 [38] was 783 nM and the TGI [38] was 1600 nM. The GI50 [10] was 974 nM, the TGI [10] was 3590 nM and the GI50 [11] was 885 nM. It also gave a TGI [11] of 1730 nM, a GI50 [39] of 703 nM and a TGI [39] of 1350 nM. It also gave a GI50 [12] of 794 nM, a TGI [12] of 1610 nM and a GI50 [40] of 880 nM. The TGI [40] was 1610 nM, the GI50 [13] was 1020 nM and the TGI [13] was 3210 nM. For the same molecule, the GI50 [41] was 869 nM, the TGI [41] was 1640 nM and the GI50 [14] was 894 nM. The TGI [14] was 1720 nM, the GI50 [42] was 886 nM and the TGI [42] was 1630 nM. It also gave a GI50 [15] of 870 nM, a TGI [15] of 1590 nM and a GI50 [16] of 899 nM. It also gave a TGI [16] of 1680 nM, a GI50 [43] of 1000 nM and a TGI [43] of 2320 nM. It also gave a GI50 [44] of 1030 nM, a TGI [44] of 2010 nM and a GI50 [45] of 878 nM. For the same molecule, the TGI [45] was 1580 nM, the GI50 [17] was 898 nM and the TGI [17] was 1820 nM. It also gave a GI50 [46] of 8300 nM, a TGI [46] of 20500 nM and a GI50 [18] of 792 nM. For the same molecule, the TGI [18] was 1530 nM, the GI50 [19] was 943 nM and the TGI [19] was 1650 nM. For the same molecule, the GI50 [20] was 862 nM, the TGI [20] was 1740 nM and the GI50 [21] was 869 nM. For the same molecule, the TGI [21] was 1670 nM, the GI50 [22] was 850 nM and the TGI [22] was 1560 nM. For the same molecule, the GI50 [47] was 935 nM, the TGI [47] was 1910 nM and the GI50 [2] was 950 nM. The TGI [2] was 1820 nM, the GI50 [48] was 995 nM and the TGI [48] was 1750 nM. The GI50 [26] was 827 nM, the TGI [26] was 1590 nM and the GI50 [49] was 802 nM. It also gave a TGI [49] of 1690 nM, a GI50 [27] of 961 nM and a TGI [27] of 1830 nM. For the same molecule, the GI50 [28] was 710 nM, the TGI [28] was 1400 nM and the GI50 [30] was 842 nM. For the same molecule, the TGI [30] was 1570 nM, the GI50 [31] was 882 nM and the TGI [31] was 1590 nM. For the same molecule, the GI50 [50] was 873 nM, the TGI [50] was 1580 nM and the GI50 [32] was 1000 nM. The TGI [32] was 2560 nM, the GI50 [51] was 826 nM and the TGI [51] was 1520 nM. It also gave a GI50 [33] of 918 nM and a TGI [33] of 1630 nM.

`C=C(C)[C@@H]1CC[C@]2(C(=O)NC(C)=O)CC[C@]3(C)[C@H](CC[C@@H]4[C@@]5(C)CCCNC(C)(C)[C@@H]5CC[C@]43C)[C@@H]12` was tested, and the GI50 [3] was 1640 nM, the TGI [3] was 3130 nM and the GI50 [4] was 1180 nM. It also gave a TGI [4] of 3400 nM, a GI50 [34] of 1680 nM and a TGI [34] of 3280 nM. It also gave a GI50 [35] of 1590 nM, a TGI [35] of 3500 nM and a GI50 [5] of 1630 nM. The TGI [5] was 3220 nM, the GI50 [36] was 1470 nM and the TGI [36] was 2790 nM. For the same molecule, the GI50 [6] was 1550 nM, the TGI [6] was 3110 nM and the GI50 [7] was 1690 nM. For the same molecule, the TGI [7] was 3250 nM, the GI50 [52] was 1310 nM and the TGI [52] was 2690 nM. The GI50 [37] was 1790 nM, the TGI [37] was 3380 nM and the GI50 [8] was 1660 nM. It also gave a TGI [8] of 3040 nM, a GI50 [9] of 1530 nM and a TGI [9] of 3070 nM. The GI50 [38] was 1330 nM, the TGI [38] was 2890 nM and the GI50 [10] was 1120 nM. The TGI [10] was 3180 nM, the GI50 [11] was 1610 nM and the TGI [11] was 3330 nM. For the same molecule, the GI50 [39] was 1400 nM, the TGI [39] was 2690 nM and the GI50 [1] was 1680 nM. The TGI [1] was 3260 nM, the GI50 [12] was 1410 nM and the TGI [12] was 3000 nM. For the same molecule, the GI50 [40] was 1590 nM, the TGI [40] was 3040 nM and the GI50 [13] was 1650 nM. The TGI [13] was 4550 nM, the GI50 [41] was 1600 nM and the TGI [41] was 3230 nM. It also gave a GI50 [14] of 1830 nM, a TGI [14] of 3680 nM and a GI50 [42] of 1510 nM. The TGI [42] was 2900 nM, the GI50 [15] was 1760 nM and the TGI [15] was 3150 nM. The GI50 [16] was 1690 nM, the TGI [16] was 3150 nM and the GI50 [43] was 1350 nM. For the same molecule, the TGI [43] was 3200 nM, the GI50 [44] was 1660 nM and the TGI [44] was 3560 nM. The GI50 [45] was 1570 nM, the TGI [45] was 2940 nM and the GI50 [17] was 1190 nM. The TGI [17] was 2980 nM, the GI50 [18] was 1340 nM and the TGI [18] was 2650 nM. It also gave a GI50 [19] of 1770 nM, a TGI [19] of 3150 nM and a GI50 [21] of 1760 nM. The TGI [21] was 3510 nM, the GI50 [22] was 1530 nM and the TGI [22] was 2880 nM. The GI50 [23] was 839 nM, the TGI [23] was 3070 nM and the GI50 [47] was 1950 nM. The TGI [47] was 3750 nM, the GI50 [2] was 1600 nM and the TGI [2] was 2960 nM. It also gave a GI50 [53] of 1210 nM, a TGI [53] of 3060 nM and a GI50 [48] of 1820 nM. It also gave a TGI [48] of 3290 nM, a GI50 [26] of 1510 nM and a TGI [26] of 3230 nM. For the same molecule, the GI50 [49] was 1530 nM, the TGI [49] was 2910 nM and the GI50 [27] was 1920 nM. For the same molecule, the TGI [27] was 3730 nM, the GI50 [28] was 1400 nM and the TGI [28] was 2830 nM. It also gave a GI50 [30] of 1760 nM, a TGI [30] of 3260 nM and a GI50 [31] of 1640 nM. For the same molecule, the TGI [31] was 3100 nM, the GI50 [54] was 1520 nM and the TGI [54] was 2970 nM. It also gave a GI50 [55] of 1180 nM, a TGI [55] of 2480 nM and a GI50 [50] of 1810 nM. It also gave a TGI [50] of 3240 nM, a GI50 [32] of 1400 nM and a TGI [32] of 3860 nM. For the same molecule, the GI50 [51] was 1510 nM, the TGI [51] was 2840 nM and the GI50 [33] was 1730 nM. It also gave a TGI [33] of 3110 nM.
